According to the NIST ThermoML archive (doi:10.1021/je900586f):

Tests used:
[1] = refractive index (Na D-line) (dimensionless); xn = mol fraction of the nth substance listed; details: 298.15 K, 101 kPa, Liquid, Standard Abbe refractometry
[2] = xn = mol fraction of the nth substance listed; details: 298.15 K, 101 kPa, Liquid, Vibrating tube method
[3] = refractive index (Na D-line) (dimensionless); details: 298.15 K; 101.33 kPa; Liquid; Standard Abbe refractometry
[4] = for mass density: 298.15 K, 101.33 kPa, Liquid, Vibrating tube method; for Normal melting temperature: Crystal

CCCCCCCCN(CCCCCCCC)CCCCCCCC [trioctylamine] + CCCCCCCCCCO
Details | mass density, [2] [kg/m3] | refractive index, [1]
x1 = 0.0504 | 825.4 | 1.437
x1 = 0.0998 | 824 | 1.4384
x1 = 0.2002 | 821.6 | 1.4406
x1 = 0.3 | 819.3 | 1.4424
x1 = 0.4002 | 817.3 | 1.4437
x1 = 0.501 | 815.4 | 1.4448
x1 = 0.6008 | 813.8 | 1.4457
x1 = 0.7007 | 812.3 | 1.4464
x1 = 0.8014 | 810.7 | 1.4469
x1 = 0.9022 | 809.2 | 1.4473
x1 = 0.9522 | 808.6 | 1.4475

CCCCCCCCO [octan-1-ol]
Details | Normal melting temperature [°C] | mass density [kg/m3] | refractive index
[3] | – | – | 1.42754
[4] | -15.30 | 821.76 | –

CCCCCCCCN(CCCCCCCC)CCCCCCCC [trioctylamine] + CCCCCCCCO
Details | mass density, [2] [kg/m3] | refractive index, [1]
x1 = 0.0497 | 820.8 | 1.4311
x1 = 0.1 | 819.7 | 1.433
x1 = 0.2 | 817.8 | 1.4359
x1 = 0.3004 | 816 | 1.4389
x1 = 0.4001 | 814.5 | 1.4415
x1 = 0.4997 | 813.1 | 1.4432
x1 = 0.6012 | 811.9 | 1.4445
x1 = 0.701 | 810.7 | 1.4453
x1 = 0.8002 | 809.7 | 1.4461
x1 = 0.8962 | 808.7 | 1.447
x1 = 0.9496 | 808.1 | 1.4474

CCCCCCCCCCO [decan-1-ol]
Details | Normal melting temperature [°C] | mass density [kg/m3] | refractive index
[3] | – | – | 1.43541
[4] | 7.04 | 826.59 | –

CCCCCCCCCCO [decan-1-ol] + CCCCCCCCO
[1]
Details | refractive index
x2 = 0.05 | 1.435
x2 = 0.0996 | 1.4346
x2 = 0.1996 | 1.434
x2 = 0.2997 | 1.4333
x2 = 0.4005 | 1.4325
x2 = 0.5006 | 1.4318
x2 = 0.6005 | 1.431
x2 = 0.7006 | 1.4301
x2 = 0.8002 | 1.4293
x2 = 0.9 | 1.4284
x2 = 0.9507 | 1.4279

CCCCCCCCN(CCCCCCCC)CCCCCCCC [trioctylamine]
Details | Normal melting temperature [°C] | mass density [kg/m3] | refractive index
[3] | – | – | 1.44758
[4] | -34.42 | 807.46 | –
